± gives the expanded uncertainty stated by the source.
Conditions: 101.33 kPa, Liquid; for viscosity: Capillary tube (Ostwald / Ubbelohde) method; for electrical conductivity: Wayne-Kerr 6430B Autobalance Bridge electrode

Compound | viscosity (303.15 K) | electrical conductivity (303.15 K) | electrical conductivity (308.15 K) | viscosity (313.15 K) | electrical conductivity (313.15 K) | electrical conductivity (318.15 K) | electrical conductivity (323.05 K) | viscosity (323.15 K) | electrical conductivity (328.15 K) | viscosity (333.15 K) | electrical conductivity (333.15 K) | electrical conductivity (338.15 K) | viscosity (343.15 K) | electrical conductivity (343.15 K) | electrical conductivity (323.15 K)
CCC(=O)[O-].CCCC[n+]1ccn(C)c1 [3-butyl-1-methyl-1H-imidazolium propanoate] | 325.7 ± 14 mPa·s | 0.0703 ± 0.00071 S/m | 0.0902 ± 0.00091 S/m | 171.5 ± 5.2 mPa·s | 0.1201 ± 0.0012 S/m | 0.156 ± 0.0016 S/m | 0.198 ± 0.002 S/m | 99.27 ± 1.9 mPa·s | 0.248 ± 0.0025 S/m | 61.78 ± 0.72 mPa·s | 0.306 ± 0.0031 S/m | 0.3716 ± 0.0037 S/m | 40.75 ± 0.51 mPa·s | 0.447 ± 0.0045 S/m | –
CC(=O)[O-].CCCCn1cc[n+](C)c1 [1-butyl-3-methylimidazolium acetate] | 288.8 ± 12 mPa·s | 0.0731 ± 0.00074 S/m | 0.1014 ± 0.001 S/m | 149.9 ± 4.2 mPa·s | 0.136 ± 0.0014 S/m | 0.178 ± 0.0018 S/m | – | 86.13 ± 1.5 mPa·s | 0.2902 ± 0.0029 S/m | 53.43 ± 0.58 mPa·s | 0.36 ± 0.0036 S/m | 0.44 ± 0.0044 S/m | 35.33 ± 0.44 mPa·s | 0.5319 ± 0.0053 S/m | 0.229 ± 0.0023 S/m
CCCC(=O)[O-].CCCC[n+]1ccn(C)c1 [3-butyl-1-methyl-1H-imidazolium butanoate] | 364.3 ± 16 mPa·s | 0.04102 ± 0.00041 S/m | 0.0558 ± 0.00056 S/m | 193.1 ± 6.3 mPa·s | 0.0752 ± 0.00076 S/m | 0.0992 ± 0.001 S/m | 0.129 ± 0.0013 S/m | 111.6 ± 2.4 mPa·s | 0.165 ± 0.0017 S/m | 69.24 ± 0.9 mPa·s | 0.208 ± 0.0021 S/m | 0.258 ± 0.0026 S/m | 45.43 ± 0.58 mPa·s | 0.315 ± 0.0032 S/m | –
CCCC[n+]1ccn(C)c1.O=C[O-] [3-butyl-1-methyl-1H-imidazolium formate] | 138.5 ± 3.4 mPa·s | 0.1909 ± 0.0019 S/m | 0.249 ± 0.0025 S/m | 80.53 ± 1.3 mPa·s | 0.319 ± 0.0032 S/m | 0.4019 ± 0.004 S/m | – | 50.78 ± 0.53 mPa·s | 0.6125 ± 0.0061 S/m | 34 ± 0.37 mPa·s | 0.738 ± 0.0074 S/m | 0.88 ± 0.0088 S/m | 23.94 ± 0.27 mPa·s | 1.04 ± 0.01 S/m | 0.498 ± 0.005 S/m

— the NIST ThermoML archive (doi:10.1021/je300507h)
